The results in this text go back to PubChem BioAssay (NCI).

Several values for one entry are separate records, joined by “and”; a condition that tells them apart may be missing. Equal values may be shown once.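 Exposure lasted 48 hours, with cells grown in 96-well plates and compounds tested at five concentrations. Abbreviation: GI50, concentration required for 50% inhibition of growth. TGI marks complete inhibition of growth.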

Holding throughout (assay): NCI anticancer screen, dose series, 48 h
The subject of assay [1] is HT29 colon.
Assay [2] deals with SK-OV-3 ovarian.
Assay [3] relates to LOX IMVI melanoma.
The subject of assay [4] is NCI-H460 lung.
Assay [5] concerns 786-0 renal.
The subject of assay [6] is SF-268 CNS.
Assay [7] concerns TK-10 renal.
The test system of assay [8] is KM12 colon.
Assay [9] deals with SK-MEL-5 melanoma.
Assay [10] has as its system MALME-3M melanoma.

Regarding `COC(=O)C(=O)C(C(=O)C(=O)Nc1cc(C)ccc1C)c1nc2ccccc2[nH]c1=O` (stereo not given), the TGI in assay [1], in assay [2], in [3], in [4], in assay [5] and in assay [6] was greater than 100 µM in each case. Also, the TGI in [7], in [8], in assay [9] and in assay [10] was greater than 100 µM in each case.
On to `NP1(Oc2ccc(F)cc2)=NP(N)(Oc2ccc(F)cc2)=NP(Oc2ccc(F)cc2)(Oc2ccc(F)cc2)=N1` (stereo not given), for which the TGI in assay [1] turned out to be 17.2 µM; in assay [2], 27.2 µM; in assay [3], 19.7 µM; in assay [4] it was 13.5 µM; in assay [5], 22.9 µM; in assay [6] it was 26.7 µM. Also, the TGI in assay [7] is 12.3 µM; in assay [8], 16.2 µM; in assay [9], 17.8 µM; in assay [10] it was 18.7 µM.
On to `COc1cccc(NC(=O)/C(CS(=O)(=O)CCC(C(C)=O)C(C)=O)=N\NC(C)(C)C)c1`, for which the TGI in [1], in [2], in assay [3], in assay [4], in assay [5] and in [6] was greater than 100 µM each time. In addition, the TGI in assay [7], in assay [8], in [9] and in assay [10] was greater than 100 µM each time.
Take `O=C(O)CN(CCN(CC(=O)O)CC(=O)O)CC(=O)O.[Cu+2].[Na+]`: the GI50 was greater than 100 µM in [1]; 23.5 µM in assay [2]; greater than 100 µM in [3]; greater than 100 µM in [4]; greater than 100 µM in [5]; greater than 100 µM in assay [6]. The GI50 in [7], in assay [8], in [9] and in [10] was greater than 100 µM in each case. Moreover, the TGI was greater than 100 µM in assay [1]; 65.2 µM in [2]; greater than 100 µM in assay [3]; greater than 100 µM in assay [4]; greater than 100 µM in assay [5]; greater than 100 µM in [6]. For the same compound, the TGI in assay [7], in assay [8], in assay [9] and in [10] was greater than 100 µM throughout.
Turning to `COc1cc(C2c3cc4c(cc3[C@@H](Nc3ccc(F)cc3)C3COC(=O)[C@H]23)OCO4)cc(OC)c1O` (stereo not given in full), the TGI worked out at 18.2 µM in assay [1]; 21 µM in [2]; 10.5 µM in assay [3]; 4.11 µM in [4]; 5.26 µM in assay [5]; 27.7 µM in [6]. For the same compound, the TGI in assay [7] came to 14.8 µM; in [8], 13.5 µM; in [9] it was 8.56 µM; in [10], 13.4 µM. Moreover, the GI50 in assay [3] is 0.44 µM; in [4], 0.124 µM; in [5], 0.567 µM; in assay [9], 0.806 µM.
In the case of `CCOC(=O)c1c(CN2CCCCC2)nc2ccc(Cl)cc2c1-c1ccccc1`, the GI50 in assay [1] is 18.8 µM; in [2] it was 23.1 µM; in assay [3], 20 µM; in assay [4] it was 20 µM; in assay [5], 19.2 µM; in assay [6] it was 23.2 µM. Further, the GI50 in [7] is 42.7 µM; in assay [8] it was 27.4 µM; in assay [9] it was 17.4 µM; in assay [10], 25.1 µM. Moreover, the TGI was 54.2 µM in assay [1]; 49 µM in assay [2]; 44.2 µM in assay [3]; 43.2 µM in assay [4]; 41.8 µM in assay [5]; 55.3 µM in [6]. The TGI in assay [7] was greater than 100 µM; in assay [8] it was 78.3 µM; in assay [9] it was 32.8 µM; in [10], 61.9 µM.
On to `COc1cc(OC)c(/C=C/S(=O)(=O)Cc2ccc(OC)c(N)n2)c(OC)c1`, for which the GI50 is less than 0.0174 µM in [1]; less than 0.01 µM in assay [2]; less than 0.01 µM in [3]; less than 0.01 µM in assay [4]; less than 0.01 µM in assay [5]; less than 0.01 µM in [6]. The GI50 in assay [7] was greater than 100 µM; in assay [8] it was less than 0.01 µM; in assay [9], less than 0.01 µM; in assay [10], greater than 100 µM. Besides, the TGI in assay [1] is greater than 54.8 µM; in [2], greater than 100 µM; in [3] it was greater than 100 µM; in assay [5], greater than 100 µM; in assay [6] it was greater than 100 µM; in assay [7], greater than 100 µM. Further, the figures for the TGI in assay [8], in [9] and in assay [10] were greater than 100 µM, 0.0116 µM and greater than 100 µM, respectively.
For `COc1cccc(/C=C\C(=O)c2ccccc2)c1`, the GI50 in assay [1] was 3.65 µM; in [2] it was 15.9 µM; in assay [3] it was 2.42 µM; in assay [4] it was 4.02 µM; in assay [5] it was 15 µM; in assay [6], 5.96 µM. Besides, the GI50 in [7] was 13.7 µM; in assay [8] it was 2.3 µM; in assay [9], 9.4 µM; in assay [10] it was 14.3 µM. In addition, the TGI is 17.5 µM in [1]; 32.2 µM in [2]; 7.38 µM in assay [3]; 22.3 µM in assay [4]; 34.2 µM in [5]; 28.9 µM in assay [6]. The TGI in [7] stood at 30.4 µM; in [8], 4.91 µM; in [9], 24.8 µM; in assay [10], 31.4 µM.
Take `O=C1N(c2ccc(Cl)cc2)C(=O)C2(SC=NN2Cc2ccccc2)N1c1ccc(Cl)cc1` (stereo not given): the TGI in assay [1], in assay [2], in [3], in assay [4], in assay [5] and in assay [6] was greater than 100 µM each time. Further, the TGI in assay [7], in assay [8], in assay [9] and in assay [10] was greater than 100 µM in each case.
`CCOC(=O)C(Oc1ccc(OC)c2c1C(=O)CCC2)c1ccccc1` (stereo not given): the TGI in [1], in [2], in assay [3], in assay [4], in assay [5] and in assay [6] was greater than 100 µM in each case. Besides, the TGI in assay [7], in assay [8], in assay [9] and in assay [10] was greater than 100 µM in each case.
Take `Cc1ccccc1NC(=O)C(=O)C(C(=O)c1ccccc1F)C1OC(=O)c2ccccc21` (stereo not given): the TGI was greater than 100 µM in [1]; greater than 100 µM in assay [2]; 33.6 µM in assay [3]; greater than 100 µM in assay [4]; 41.6 µM in assay [5]; 62.5 µM in [6]. The TGI is greater than 100 µM in assay [7], 68.2 µM in assay [8], 86.5 µM in [9] and 95.1 µM in [10].
For `CCOC(=O)Nc1cc2c(c(N)n1)N=C(c1ccc(Cl)cc1Cl)CN2`, the TGI stood at 0.641 µM in assay [1]; 23.2 µM in assay [2]; 44.8 µM in assay [3]; 6.3 µM in assay [4]; 18.5 µM in assay [5]; 25.5 µM in assay [6]. The TGI in assay [7] was 35.4 µM; in assay [8], 2.83 µM; in assay [9], 0.999 µM; in assay [10], 29.6 µM.
Regarding `COc1cc(O)c(C(=O)C2Cc3ccccc32)c(OC)c1` (stereo not given), the TGI in [1], in assay [2], in assay [3], in [4], in assay [5] and in [6] was greater than 100 µM each time. In addition, the TGI in assay [7], in [8], in assay [9] and in assay [10] was greater than 100 µM in each case.
Consider `COc1cc2c(cc1O)CCN[C@@]21CS[C@H]2c3c(OC(C)=O)c(C)c4c(c3C(COC1=O)N1C2C2NC(Cc3cc(C)c(OC)c(O)c32)[C@@H]1O)OCO4` (stereo not given in full), for which the GI50 in assay [1] is 4.5 ng/mL; in [2], 4.5 ng/mL; in [3], 4.5 ng/mL; in assay [5], 4.5 ng/mL; in [6], 4.5 ng/mL; in assay [7], 0.00184 ng/mL and 4.5 ng/mL. Also, the GI50 in [10] is 0.000122 ng/mL. For the same compound, the TGI in [1] is 11.1 µM and 5.58 µg/mL; in [2], 10.9 µM and 1.47 µg/mL; in assay [3], 1970 ng/mL; in [4] it was less than 0.01 µM; in assay [5] it was 30.8 nM and 0.0045 µg/mL; in assay [6], < 10 nM and 4.8e-07 µg/mL and 0.0045 µg/mL. Moreover, the TGI in assay [7] is 13.1 µM and 6.24 µg/mL; in assay [8], 11.3 µM; in assay [9], < 10 nM and 2.8e-07 µg/mL and 0.0045 µg/mL; in assay [10], 0.000506 ng/mL.
For the compound `COc1ccc(/C(=C(\c2ccccc2)[N+](=O)[O-])c2ccc(OCCN3CCCC3)cc2)cc1`, the GI50 was 0.301 µM in assay [1]; 5.5 µM in assay [2]; 2.05 µM in assay [3]; 2.02 µM in assay [4]; 1.64 µM in assay [5]; 5.99 µM in [6]. The GI50 in assay [7] is 5.17 µM; in assay [8] it was 2.16 µM; in [9], 1.54 µM; in [10], 1.57 µM. The TGI stood at 1.82 µM in assay [1]; 18.3 µM in [2]; 6.73 µM in assay [3]; 4.69 µM in assay [4]; 3.27 µM in [5]; 20 µM in assay [6]. The TGI came to 20.1 µM in assay [7], 12.4 µM in assay [8], 2.92 µM in assay [9] and 3.43 µM in assay [10].
In the case of `COc1cc(/C=N\Nc2ccccc2)ccc1OC(=O)c1ccccc1`, the GI50 in assay [1] was 3.72 µM; in assay [2], 45.6 µM; in assay [3], 0.296 µM; in assay [4], 1.22 µM; in assay [5], 5.09 µM; in assay [6], 4.54 µM. Moreover, the GI50 in assay [7] is 16.5 µM; in assay [8], 0.778 µM; in assay [9], 1.53 µM; in [10], 7.55 µM. The TGI in assay [1] was 17.7 µM; in assay [2], greater than 100 µM; in assay [3] it was 4.57 µM; in assay [4], greater than 46 µM; in assay [5], greater than 100 µM; in assay [6], greater than 100 µM. In addition, the TGI was 68.3 µM in [7], greater than 68.8 µM in assay [8], 18.9 µM in assay [9] and greater than 100 µM in [10].
As for `CC1CCc2c(C(=O)Nc3ncc(Cc4cccc([N+](=O)[O-])c4)s3)csc2C1` (stereo not given), the GI50 is 0.38 µM in [1]; 0.436 µM in assay [2]; 0.48 µM in assay [3]; 0.491 µM in assay [4]; 1.18 µM in [5]; 1.53 µM in assay [6]. In addition, the GI50 in assay [7] was 5.04 µM; in assay [8], 0.442 µM; in [9], 0.476 µM; in [10], 1 µM. In addition, the TGI in [1], in assay [2], in assay [3], in [4], in assay [5] and in assay [6] was greater than 100 µM each time. For the same compound, the TGI in assay [7], in assay [8], in assay [9] and in assay [10] was greater than 100 µM throughout.
Consider `COc1cc(F)c(F)c(Nc2ccc(I)cc2F)c1NS(=O)(=O)C1(CC(O)CO)CC1` (stereo not given), for which the GI50 is 4.5 µM in assay [1]; 25.8 µM in [2]; 4.92 µM in assay [3]; 13.9 µM in [4]; 16.8 µM in assay [5]; 15.6 µM in assay [6]. The GI50 in [7] is 14.9 µM; in assay [8] it was 13.3 µM; in [9], 8.12 µM; in [10] it was 1.02 µM. Further, the TGI was 22.5 µM in assay [1]; greater than 79.6 µM in assay [2]; 17.6 µM in assay [3]; 33.2 µM in assay [4]; 38.7 µM in assay [5]; 55 µM in assay [6]. For the same compound, the TGI was determined as 72.1 µM in assay [7], 30.9 µM in [8], 21.9 µM in assay [9] and 8.02 µM in [10].
